Experimental data taken from patent US5998437A, “Benzimidazole derivatives” (Otsuka Pharmaceutical Co., Ltd., priority 1995, dated 1999).

Key:
cGMP-PDE = target: T1, cGMP-PDE (Homo sapiens, UniProt O76074); experiment: Activity for inhibiting cGMP PDE (PDE partially purified from human platelets, FI fraction); type: biochemical; details: 0.4 μM of [3H]-cGMP
T1 construct: Separation and partial purification of PDE (phosphodiesterase) from human platelets; from tissue; host or cells: human platelets (supernatant, DEAE-cellulose FI fraction)
Method: (1) Measurement of the Activity for Inhibiting cGMP PDE
Separation and partial purification of PDE (phosphodiesterase) from human platelets, and measurement of the activity for inhibiting cGMP PDE were conducted by the method of Hidaka, et al. [Biochimica et Biophysica Acta, Vol. 429, (1976), pp. 485-497]. The platelets obtained from human healthy adult were washed, and suspended in TRIS-buffer solution, then said suspension was treated by centrifugal separation, the supernatant was subjected to a DEAE-cellulose treatment and fractionated into FI to FIII fractions by a method of concentration gradient of sodium acetate. Thus obtained FI fraction was used as the sample of cGMP-PDE. The activity for inhibiting cGMP-PDE was measured by using 0.4 μM of [^3 H]-cGMP.

rat mesangial cells = experiment: Activity for inhibiting proliferation of rat mesangial cells (PDGF-BB, [3H]-thymidine uptake); type: cell-based; details: Mesangial cell, 5 ng/ml PDGF-BB, 0.5% FCS
Description: (7) Determination of the Activity for Inhibiting Proliferation of Rat Mesangial Cells
In accordance with the method of F. Jaffer, et al. [Am. J. Pathol., Vol. 135, (1989), pages 261-269], the mesangial cells were collected. Under anesthetized condition, the kidney of a rat was aseptically enucleated and the medulla renis was cut out, then the cortex renis was pressed to a sieve (120 mesh) made of stainless steel. The fraction of cortex renis passed through the sieve was put on another sieve of 200 mesh and washed with PBS (phosphate-buffered saline), the fraction being remained on the sieve was confirmed as the glomerulus. This fraction was cultured in RPMI 1640 medium [containing 15% of fetal calf serum (FCS), and 5 μg/ml of insulin] for 4 weeks. This fraction was further subcultured twice, and the remaining cells were thought of as the mesangial cells for use of this experiment.
Determination of the activity for inhibiting proliferation of rat mesangial cells was conducted in accordance with the method of M. B. Ganz, et al. [Am. […]
Thus 2×10^4 /ml of mesangial cells were inoculated on a culture plate (48 wells, each well having the capacity of 0.5 ml), and cultured with RPMI medium (containing 15% FCS) for 3 days. […] The supernatant of the culture medium was taken up, and the amount of [^3 H]-thymidine up-taken into the cells was measured by use of scintillation counter.

IC50 (cGMP-PDE): 0.01 µM
SMILES: O=C(Nc1ccc2c(ccn2CCCn2ccnc2)c1)c1nc2ccc(Cl)cc2n1Cc1ccccc1 [Example 3, 1-benzyl-6-chloro-2-{1-[3-(imidazol-1-yl)propyl]indol-5-ylamino-carbonyl}benzimidazole]
IC50 (rat mesangial cells): 790 nM
